Measurements: patent publication US20250312469A1 (CANGET BIOTEKPHARMA, priority 2024, published 2025)

Columns and labels:
[1] = target: T1, bovine serum albumin (BSA) (Bos taurus, UniProt P02769); experiment: ITC, BSA control protein; assay type: binding
T1 construct: purchased EMD (Billerica, MA)
Method: (2) Preparation of Flag-DDX5, Flag-USP2, Flag-UbE2T and Flag-Top1 protein solutions (>360 μL/sample), respectively, containing 10 μM of Flag-DDX5, Flag-USP2, Flag-UbE2T or Flag-Top1 proteins in 1×PBS (pH7.4) and 8% DMSO from protein stocks in 1× PBS (the same solution was also prepared for BSA).
(3) preparation of washing/diluting solution (>2.5 mL/sample) containing 1× PBS (pH7.4) and 8% DMSO.
(4) ITC assay was performed using the auto-iTC200 instrument (MicroCal, GE). A protein solution (Flag-DDX5, Flag-USP2, Flag-UbE2T, Flag-Topl or BSA) with defined concentration (10 μM) in a volume of 360 μL in 1×PBS (pH7.4) containing 8% DMSO was loaded into the calorimeter cell as the Macromolecule (M). […] At each injection, the program calculates [M]t and [X]t (total protein and total ligand at that injection). The binding constant (KD)), binding stoichiometry (n), and thermodynamic parameters (AH and AS) were determined by fitting the titration curve to a one-site binding mode, using the Origin software provided by the manufacturer.

CYP1A2 mRNA = experiment: CYP induction (mRNA) in fresh human hepatocytes
Excerpt: (2) CYP positive inducers (Table 58a) and Williams' Medium E (WME) were purchased from Sigma-Aldrich (St. Louis, MO, USA). Dulbecco's phosphate-buffered saline (DPBS, pH 7.4) was purchased from Invitrogen (Carlsbad, CA, USA). Hepatocyte culture medium (serum-free) for CYP induction was purchased from XenoTech (catalog #K2300, Lenexa, KS, USA). The CellTiter 96 AQueous ONE Solution Cell Proliferation Assay was obtained from Promega (Madison, WI, USA). All other chemicals and reagents were of analytical grade or higher. (3) Fresh human hepatocytes (Table 58b) seeded at ˜0.15 million cells/well in 48-well plates (˜0.75 million cells/mL) were purchased from Thermo Fisher Scientific (Grand Island, NY, USA) and BioreclamationIVT (Baltimore, MD, USA).
Vehicle controls were treated in parallel with hepatocyte culture medium. […] (2) After the CYP induction treatment, the cells were used for a cell viability assay. […] The absorbance of formazan, which is proportional to the number of viable cells, was measured spectrophotometrically using the CellTiter 96 AQueous ONE Solution Cell Proliferation Assay. […] (3) Total RNA was isolated from the treated cells using the RNeasy mini kit (Qiagen, Valencia, CA, USA) and treated with RNase-free DNase (Qiagen) following the manufacturer's protocols. The concentration of RNA was determined using a Qubit Fluorometer with a Qubit RNA HS assay kit (Invitrogen). cDNA was synthesized from up to 1 μg of the total RNA harvested from the cells using a QuantiTect RT kit (Qiagen). Analysis of gene expression by qPCR was performed using the LightCycler 480 System (Roche Diagnostics Corporation, Indianapolis, IN, USA).

T1 sequence (P02769 25-607): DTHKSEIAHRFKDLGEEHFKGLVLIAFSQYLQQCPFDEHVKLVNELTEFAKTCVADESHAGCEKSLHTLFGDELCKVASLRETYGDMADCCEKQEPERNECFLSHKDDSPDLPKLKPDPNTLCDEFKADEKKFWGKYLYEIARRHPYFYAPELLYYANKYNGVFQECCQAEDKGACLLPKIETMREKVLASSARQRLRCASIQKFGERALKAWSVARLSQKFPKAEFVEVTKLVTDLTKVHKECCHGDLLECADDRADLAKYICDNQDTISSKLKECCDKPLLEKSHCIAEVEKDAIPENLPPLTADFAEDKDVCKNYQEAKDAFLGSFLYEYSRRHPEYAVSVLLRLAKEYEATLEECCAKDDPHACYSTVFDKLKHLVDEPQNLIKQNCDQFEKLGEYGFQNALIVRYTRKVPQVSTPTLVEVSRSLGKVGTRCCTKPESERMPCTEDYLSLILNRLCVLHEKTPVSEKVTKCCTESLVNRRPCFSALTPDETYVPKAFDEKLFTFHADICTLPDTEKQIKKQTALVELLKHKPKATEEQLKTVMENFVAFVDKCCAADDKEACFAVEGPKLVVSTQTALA

CCC1(O)C(=O)OCc2c1cc1n(c2=O)Cc2cc3cc4c(cc3nc2-1)OCO4 (centres unmarked) [FL118]
binding to BSA [1]: no binding
% of OME-treated Cells (CYP1A2 mRNA; donor 1, 0.01 μM): 0.15%
induction of CYP1A2 mRNA (CYP1A2 mRNA; donor 1, 0.01 μM): < 2 fold
% of OME-treated Cells (CYP1A2 mRNA; donor 1, 0.1 μM): 1.1%
induction of CYP1A2 mRNA (CYP1A2 mRNA; donor 1, 0.1 μM): 2.0 fold
% of OME-treated Cells (CYP1A2 mRNA; donor 1, 1 μM): 2.6%
induction of CYP1A2 mRNA (CYP1A2 mRNA; donor 1, 1 μM): 3.4 fold
% of OME-treated Cells (CYP1A2 mRNA; donor 2, 0.001 μM): 0.88%
induction of CYP1A2 mRNA (CYP1A2 mRNA; donor 2, 0.001 μM): 2.3 fold
% of OME-treated Cells (CYP1A2 mRNA; donor 2, 0.005 μM): 1.0%
induction of CYP1A2 mRNA (CYP1A2 mRNA; donor 2, 0.005 μM): 2.5 fold
% of OME-treated Cells (CYP1A2 mRNA; donor 2, 0.01 μM): 2.6%
induction of CYP1A2 mRNA (CYP1A2 mRNA; donor 2, 0.01 μM): 4.9 fold
% of OME-treated Cells (CYP1A2 mRNA; donor 3, 0.025 μM): 1.6%
induction of CYP1A2 mRNA (CYP1A2 mRNA; donor 3, 0.025 μM): 2.0 fold
% of OME-treated Cells (CYP1A2 mRNA; donor 3, 0.05 μM): 1.6%
induction of CYP1A2 mRNA (CYP1A2 mRNA; donor 3, 0.05 μM): 2.1 fold
